# Test system: HCT116 colon cancer cells
# Test: KSP Cellular Assay (percent of cells staining positive for Phos-Histone H3 / Phos-MPM2)
# Assay type: cell-based
# Details: Homo sapiens, HCT-116, 16 h, Table 101; HCT116 cells, 16 hours with drug; read-out: ED50 (nM) Range
# Procedure: HCT116 colon cancer cells were grown in DMEM:F12 media with 10% heat inactivated FBS at 37 degrees with 5% CO2. Cells were plated at 7,500 cells per well in PDL coated 384-well tissue culture plates. 6 hours later media was removed and new media containing drug was added. Cells were incubated with drug for 16 hours. All further steps were performed at room temperature in the dark. Cells were fixed with 25 ul/well Prefer fixation solution plus 250 nM Hoechst dye and incubated for 30 minutes. The fixation solution was removed and cells were washed with PBS. Cells were then permeabilized with 25 ul/well 0.2% Triton-X in PBS and incubated for 10 minutes. Cells were washed with PBS and then incubated with 25 ul/well PBS containing 3% FBS for 30 minutes. Cells were then stained overnight at 4 degrees with 25 ul/well antibody solution in PBS plus 3% FBS. Antibodies used were Phos-Histone H3 (ser10)-Alexa Flur 488 Conjugate and Phos-MPM2 Texas Red Conjugate. Cells were washed with PBS and then immunofluorescence images captured with HT Pathway microscope. The percent of cells staining positive was calculated and EC50 values for the compounds of the invention that were tested were determined using Excel XLfit.
# EC50 Determinations: Dose-response curves were plotted from inhibition data generated each in duplicate, from 8 point serial dilutions of inhibitory compounds. Concentration of compound was plotted against enzyme activity (OD reading). To generate EC50 values, the dose-response curves were then fitted to a standard sigmoidal curve and EC50 values were derived by nonlinear regression analysis.
row,SMILES,EC50 [nM]
1,CC(=O)N1N=C(c2cc(F)ccc2F)SC12CCOc1ccc(F)cc12 (stereo not shown) [compound 116],≤ 500
2,CC(=O)N1N=C(c2cc(F)ccc2F)SC12CCCc1ccsc12 (stereo not shown) [compound 107],> 500
3,CC(=O)N1N=C(c2cc(F)ccc2F)S[C@@]12CCc1ccccc12 [compound 118],≤ 500
4,CC(=O)N1N=C(c2cc(F)ccc2F)SC12CCS(=O)(=O)c1ccccc12 (stereo not shown) [compound 109],> 1000
5,CC(=O)N1N=C(c2cc(F)ccc2F)SC12CCCc1ccccc12 (stereo not shown) [compound 101],> 1000
6,CC(=O)N1N=C(c2cc(F)ccc2F)SC12CCCOc1ccccc12 (stereo not shown) [compound 121],> 1000
7,CCOC(=O)N1CCC2(SC(c3cc(F)ccc3F)=NN2C(C)=O)c2ccccc21 (stereo not shown) [compound 113],> 1000

# Same assay, conditions: Homo sapiens, HCT-116, 16 h, Table 401; HCT116 cells, 16 hours with drug; read-out: ED50 (nM) Range
row,SMILES,EC50 [nM]
1,CN(C)CCCC(=O)N1N=C(c2cc(F)ccc2F)SC12Cc1ccccc12 (stereo not shown) [compound 463],≤ 500
2,O=C(CC1CCNCC1)N1N=C(c2cc(F)ccc2F)SC12CCOc1ccccc12 (stereo not shown) [compound 486],500 to 1000
3,N[C@H]1C[C@@H](C(=O)N2N=C(c3cc(F)ccc3F)SC23CCOc2ccccc23)C1 (stereo partly shown) [compound 499],500 to 1000
4,N[C@H](C(=O)N1N=C(c2cc(F)ccc2F)SC12CCCc1ccccc12)C1CC1 (stereo partly shown) [compound 418],> 1000
5,O=C(CCCN1CCCC1)N1N=C(c2cc(F)ccc2F)SC12CCOc1ccccc12 (stereo not shown) [compound 492],≤ 500
6,N[C@@H]1CC[C@H](C(=O)N2N=C(c3cc(F)ccc3F)SC23CCOc2ccccc23)C1 (stereo partly shown) [compound 477],> 500
7,O=C(Cc1ccncc1)N1N=C(c2cc(F)ccc2F)SC12CCc1ccccc12 (stereo not shown) [compound 449],≤ 500
8,O=C(C1CCCNC1)N1N=C(c2cc(F)ccc2F)SC12CCCc1ccccc12 (stereo not shown) [compound 416],> 1000
9,O=C(C1CCNCC1)N1N=C(c2cc(F)ccc2F)SC12CCOc1ccccc12 (stereo not shown) [compound 408],> 1000
10,O=C(CC1CCNCC1)N1N=C(c2cc(F)ccc2F)SC12CCc1ccccc12 (stereo not shown) [compound 447],≤ 500
11,O=C(CC1CCCNC1)N1N=C(c2cc(F)ccc2F)SC12CCOc1ccccc12 (stereo not shown) [compound 483],500 to 1000
12,O=C(C(F)F)N1N=C(c2cc(F)ccc2F)SC12CCOc1ccccc12 (stereo not shown) [compound 471],≤ 500
13,O=C(CCC1CCNCC1)N1N=C(c2cc(F)ccc2F)SC12CCOc1ccccc12 (stereo not shown) [compound 498],≤ 500
14,N[C@H]1C[C@H](C(=O)N2N=C(c3cc(F)ccc3F)SC23CCOc2ccccc23)C1 (stereo partly shown) [compound 500],> 500

# Same assay, conditions: Homo sapiens, HCT-116, 16 h, Table 1201 (Example 1201); HCT116 cells, 16 hours with drug; read-out: EC50 (nM) Range
row,SMILES,EC50 [nM]
1,"CC(=O)N1N=C(c2cc(F)ccc2F)S[C@@]12c1ccccc1OC[C@H]2CCN1CCOCC1 (single isomer, unassigned) [compound 1201]",≤ 500

# Same assay, conditions: Homo sapiens, HCT-116, 16 h, table of Example 1001; HCT116 cells, 16 hours with drug; read-out: EC50 (nM) Range
row,SMILES,EC50 [nM]
1,"CC(=O)N1N=C(c2cc(F)ccc2F)S[C@]12c1ccccc1OC[C@H]2CCCO (single isomer, unassigned) [compound 1002]",≤ 500

# Same assay, conditions: Homo sapiens, HCT-116, 16 h, table of Example 1801 (headed Table 1201); HCT116 cells, 16 hours with drug; read-out: EC50 (nM) Range
row,SMILES,EC50 [nM]
1,CC(=O)N1N=C(c2ccc(F)cc2F)S[C@]12c1ccccc1OC[C@@H]2CCN [compound 1816],> 1000
2,CC(=O)N1N=C(c2cc(F)cc(F)c2)S[C@@]12c1cc(F)ccc1OC[C@H]2CCN [compound 1821],≤ 500

# Same assay, conditions: Homo sapiens, HCT-116, 16 h, table of Example 2001; HCT116 cells, 16 hours with drug; read-out: EC50 (nM) Range
row,SMILES,EC50 [nM]
1,CO[C@@H](C)C(=O)N1N=C(c2cc(F)ccc2F)S[C@@]12c1ccccc1OC[C@H]2CCN [compound 2008],≤ 500
2,NCC[C@H]1COc2ccccc2[C@]12SC(c1cc(F)ccc1F)=NN2C(=O)C(F)F [compound 2005],≤ 500

# Same assay, conditions: Homo sapiens, HCT-116, 16 h, table of Example 2101; HCT116 cells, 16 hours with drug; read-out: EC50 (nM) Range
row,SMILES,EC50 [nM]
1,CCOC(=O)N1N=C(c2cc(F)ccc2F)S[C@@]12c1ccccc1OC[C@H]2CCN [compound 2103],> 1000

# Same assay, conditions: Homo sapiens, HCT-116, 16 h, table of Example 2201; HCT116 cells, 16 hours with drug; read-out: EC50 (nM) Range
row,SMILES,EC50 [nM]
1,"CN(C)C(=O)N1N=C(c2cc(F)ccc2F)S[C@@]12c1cc(F)ccc1OC[C@H]2CCN (single isomer, unassigned) [compound 2201]",> 1000
2,CN(C)C(=O)N1N=C(c2cc(F)ccc2F)S[C@]12c1cc(F)ccc1OC[C@@H]2CCN [compound 2202],> 1000

# Same assay, conditions: Homo sapiens, HCT-116; table of Example 2001; HCT116 cells, 16 hours with drug; read-out: EC50 (nM) Range
row,SMILES,EC50 [nM]
1,NCC[C@@H]1COc2ccccc2[C@@]12SC(c1cc(F)ccc1F)=NN2C(=O)CF [compound 2002],≤ 500

# From patent publication US8796460B2, “Compounds for inhibiting KSP kinesin activity” (Mercky Sharp & Dohme Corp., priority 2007, dated 2014)
